The test system of test [1] is E. coli. Put plainly: E. coli challenged by silver surfactants in commercial alkyd paint. Also: key: A minus sign (−) denotes no growth; a plus sign (+) denotes confluent growth; a capital P (P) denotes particle growth. Format: cell-based, Escherichia coli. The settings on record: alkyd resin paint coating, 24 h contact time.
Test [2] relates to E. coli. Put plainly: E. coli challenged by silver surfactants in commercial acrylic paint. As to surviving bacteria (growth): key: A minus sign (−) denotes no growth; a plus sign (+) denotes confluent growth; a capital P (P) denotes particle growth. Format: cell-based, Escherichia coli. The following applies: 24 h contact time; for surviving bacteria (growth): commercial solvent borne acrylate paint coating.
The test system of the next test is S. aureus. Put plainly: S. aureus challenged by silver surfactants in laboratory acrylic clearcoat. As to surviving bacteria (growth): key: A minus sign (−) denotes no growth; a plus sign (+) denotes confluent growth; a capital P (P) denotes particle growth. Format: cell-based, Staphylococcus aureus. The following applies: 24 h contact time; for surviving bacteria (growth): laboratory solvent borne acrylate clearcoat.
In test [3] the test system is E. coli. Put plainly: E. coli challenged by silver surfactants in laboratory acrylic paint. As to surviving bacteria (growth): key: A minus sign (−) denotes no growth; a plus sign (+) denotes confluent growth; a capital P (P) denotes particle growth. Format: cell-based, Escherichia coli. The settings on record: 24 h contact time; for surviving bacteria (growth): laboratory solvent borne acrylate paint coating.
Test [4] has as its system E. coli. In words: E. coli challenged by silver surfactants in commercial 2K epoxy paint. Format: cell-based, Escherichia coli. The following applies: 24 h contact time; for surviving bacteria (growth): commercial 2K epoxy paint coating.
For the next test, the system named is Staphylococcus aureus. Put plainly: Growth on agar plates containing sodium surfactant. Format: cell-based.
The next test has as its system Bacillus subtilis. In words: Growth on agar plates containing sodium surfactant. Format: cell-based.
The next test concerns Streptococcus viridans. In words: Growth on agar plates containing sodium surfactant. Format: cell-based.
A further test concerns Streptococcus bovis. Put plainly: Growth on agar plates containing sodium surfactant. The test is classed as cell-based.
A further test deals with Enterococcus fecalis. In words: Growth on agar plates containing sodium surfactant. The test is classed as cell-based.
Test [5] deals with Staphylococcus epidermidis. Put plainly: Growth on agar plates containing sodium surfactant. The test is classed as cell-based.
A further test deals with Streptococcus pyogenes. Put plainly: Growth on agar plates containing sodium surfactant. The test is classed as cell-based.
A further test has as its system Streptococcus agalactiae. In words: Growth on agar plates containing sodium surfactant. The test is classed as cell-based.
For the next test, the system named is Micrococcus luteus. In words: Growth on agar plates containing sodium surfactant. The test is classed as cell-based.
Where [6] appears, read: agar plates with sodium surfactant, strain ATCC6538, replicates 1-2 or 1-3.
Setting [7] is: agar plates with sodium surfactant, strain EM24/ATCC25923, replicates 1-2 or 1-3.
Setting [8] is: agar plates with sodium surfactant, strain ATCC33, replicates 1-2 or 1-3.
[9] abbreviates: agar plates with sodium surfactant, strain EM27, replicates 1-2 or 1-3.
[10] abbreviates: agar plates with sodium surfactant, strain EM8, replicates 1-2 or 1-3.
Setting [11] is: agar plates with sodium surfactant, strain EM12, replicates 1-2 or 1-3.
Setting [12] is: agar plates with sodium surfactant, strain EM19, first line, replicates 1-2 or 1-3.
[13] abbreviates: agar plates with sodium surfactant, strain EM19, second line, replicates 1-2 or 1-3.
Setting [14] is: agar plates with sodium surfactant, strain EM3/ATCC12228, replicates 1-2 or 1-3.
The mark [15] stands for this setting: agar plates with sodium surfactant, strain EM14, replicates 1-2 or 1-3.
[16] abbreviates: agar plates with sodium surfactant, strain EM13, replicates 1-2 or 1-3.
Setting [17] is: agar plates with sodium surfactant, strain EM17, replicates 1-2 or 1-3.

From patent US8574608B2, “Bactericidal silver surfactant delivery into coating and polymer compositions” (Eastern Michigan Universtity, priority 2007, dated 2013) come the findings set out here.

Several values for one entry are separate records, joined by “and”; a condition that tells them apart may be missing. Equal values may be shown once. Read-outs that look alike come from different tables or passages of the source.

For `CCCCCCCCCCCCOS(=O)(=O)[O-].[Ag+]` [AgDS, Silver dodecylsufate], the “surviving bacteria (growth)” value in the test on E. coli [1] (0.0012 weight % Ag in coating) was “+”; in the test with E. coli [1] (0.003 weight % Ag in coating), “+”; with E. coli [1] (0.006 weight % Ag in coating), “+”; in the test on E. coli [1] (0.012 weight % Ag in coating), “+”; in the test with E. coli [1] (0.03 weight % Ag in coating), “−”; with E. coli [1] (0.06 weight % Ag in coating) it was “−”. Also, the “surviving bacteria (growth)” value with E. coli [1] (0.12 weight % Ag in coating) is given as “−”; in the test on E. coli [2] (0.0012 weight % Ag in coating), “+”; in the test with E. coli [2] (0.003 weight % Ag in coating), “+”; with E. coli [2] (0.006 weight % Ag in coating), “+”; with E. coli [2] (0.012 weight % Ag in coating), “+”; in the test on E. coli [2] (0.03 weight % Ag in coating), “−”. Further, the “surviving bacteria (growth)” value in the test on E. coli [2] (0.06 weight % Ag in coating), in the test with E. coli [2] (0.12 weight % Ag in coating), in the test on S. aureus (0.0012 weight % Ag in coating), in the test on S. aureus (0.003 weight % Ag in coating), in the test with S. aureus (0.006 weight % Ag in coating) and in the test with S. aureus (0.012 weight % Ag in coating) was “−” in each case. The “surviving bacteria (growth)” value is given as “−” in the test with S. aureus (0.03 weight % Ag in coating); “−” in the test on S. aureus (0.06 weight % Ag in coating); “−” in the test with S. aureus (0.12 weight % Ag in coating); “+” in the test on E. coli [3] (0.0012 weight % Ag in coating); “+” in the test with E. coli [3] (0.003 weight % Ag in coating); “+” in the test with E. coli [3] (0.006 weight % Ag in coating). The “surviving bacteria (growth)” value with E. coli [3] (0.03 weight % Ag in coating) is reported as “−”; with E. coli [3] (0.06 weight % Ag in coating), “−”; in the test on E. coli [3] (0.12 weight % Ag in coating), “−”; in the test with E. coli [4] (0.0012 weight % Ag in coating), “+”; in the test on E. coli [4] (0.003 weight % Ag in coating), “+”; with E. coli [4] (0.006 weight % Ag in coating), “+”. Further, the “surviving bacteria (growth)” value in the test with E. coli [4] (0.03 weight % Ag in coating), in the test on E. coli [4] (0.06 weight % Ag in coating) and in the test on E. coli [4] (0.12 weight % Ag in coating) was “−” each time. The “silver level effective at preventing any growth” value in the test with E. coli [2] (commercial acrylic paint) and with E. coli [3] (laboratory acrylic paint) was 0.03 % w/w each time. Moreover, in the test with E. coli [3] (laboratory acrylic paint), the “silver level with partial inhibition (only partial growth)” value was found to be 0.012%. Further, the “silver level giving complete inhibition of growth” value with E. coli [4] (commercial 2K epoxy paint) is reported as 0.03 % w/w. For the same compound, the “silver level partially effective” value in the test on E. coli [4] (commercial 2K epoxy paint) stood at 0.012 % w/w.

With `CC(C)CC(C)OC(=O)CC(C(=O)OC(C)CC(C)C)S(=O)(=O)[O-].[Na+]` (stereo not shown) [Compound S4], the “Survival: No Growth/Full Growth” value is given as “−” with Staphylococcus aureus (setting [6]); “−” in the test on Staphylococcus aureus (setting [7]); “−” in the test with Bacillus subtilis (setting [8]); “−” in the test on Bacillus subtilis (setting [9]); “+” in the test on Streptococcus viridans (setting [10]); “−” in the test with Streptococcus bovis (setting [11]). Further, the “Survival: No Growth/Full Growth” value in the test with Enterococcus fecalis (setting [12]) is listed as “−”; with Enterococcus fecalis (setting [13]), “+”; in [5] (setting [14]), “−”; in the test on Streptococcus pyogenes (setting [15]), “−”; with Streptococcus agalactiae (setting [16]) it was “−”; with Micrococcus luteus (setting [17]) it was “−”.

As for `CCCCC(CC)COC(=O)CC(C(=O)OCC(CC)CCCC)S(=O)(=O)[O-].[Na+]` (stereo not shown) [Compound S1], the “Survival: No Growth/Full Growth” value in the test with Staphylococcus aureus (setting [6]), in the test on Staphylococcus aureus (setting [7]), with Bacillus subtilis (setting [8]), in the test on Bacillus subtilis (setting [9]), in the test with Streptococcus viridans (setting [10]) and with Streptococcus bovis (setting [11]) was “−” each time. Also, the “Survival: No Growth/Full Growth” value (with Enterococcus fecalis (setting [12]); in the test with Enterococcus fecalis (setting [13]); in test [5] (setting [14]); in the test with Streptococcus pyogenes (setting [15]); in the test with Streptococcus agalactiae (setting [16]); with Micrococcus luteus (setting [17])) was “−” in each case.

Regarding `CCCCCCCCCCCCCOC(=O)CC(C(=O)OCCCCCCCCCCCCC)S(=O)(=O)[O-].[Na+]` (stereo not shown) [Compound S6], the “Survival: No Growth/Full Growth” value in the test on Staphylococcus aureus is “+”; in the test with Bacillus subtilis, “− and +”; in the test with Streptococcus viridans, “+”; in the test on Streptococcus bovis, “−”; in the test on Enterococcus fecalis, “+”; in test [5] it was “+”. In addition, the “Survival: No Growth/Full Growth” value was “−” in the test with Streptococcus pyogenes; “− and +” in the test with Streptococcus agalactiae; “+ and −” in the test with Micrococcus luteus.

Consider `CCCCC(CC)COP(=O)([O-])OCCC(CC)CCC.[Na+]` (stereo not shown) [Compound S2], for which the “Survival: No Growth/Full Growth” value in the test on Staphylococcus aureus (setting [6]), in the test with Staphylococcus aureus (setting [7]), with Bacillus subtilis (setting [8]), with Bacillus subtilis (setting [9]), in the test with Streptococcus viridans (setting [10]) and in the test on Streptococcus bovis (setting [11]) was “−” in each case. For the same compound, the “Survival: No Growth/Full Growth” value (with Enterococcus fecalis (setting [12]); in the test on Enterococcus fecalis (setting [13]); in [5] (setting [14]); with Streptococcus pyogenes (setting [15]); in the test on Streptococcus agalactiae (setting [16]); in the test on Micrococcus luteus (setting [17])) was “−” throughout.

In the case of “silver linearalkanebenzene sulfonate [AgLABS]”, the “surviving bacteria (growth)” value in the test with E. coli [1] (0.0012 weight % Ag in coating) was “+”; in the test on E. coli [1] (0.003 weight % Ag in coating), “+”; in the test on E. coli [1] (0.006 weight % Ag in coating), “+”; in the test on E. coli [1] (0.012 weight % Ag in coating), “+”; with E. coli [1] (0.03 weight % Ag in coating), “−”; in the test with E. coli [1] (0.06 weight % Ag in coating) it was “−”. Besides, the “surviving bacteria (growth)” value in the test with E. coli [1] (0.12 weight % Ag in coating) is “−”; in the test on E. coli [2] (0.0012 weight % Ag in coating) it was “+”; with E. coli [2] (0.003 weight % Ag in coating) it was “+”; with E. coli [2] (0.006 weight % Ag in coating) it was “+”; in the test with E. coli [2] (0.012 weight % Ag in coating), “+”; with E. coli [2] (0.06 weight % Ag in coating), “−”. Moreover, the “surviving bacteria (growth)” value in the test with E. coli [2] (0.12 weight % Ag in coating), in the test with S. aureus (0.0012 weight % Ag in coating), in the test on S. aureus (0.003 weight % Ag in coating), with S. aureus (0.03 weight % Ag in coating), in the test with S. aureus (0.06 weight % Ag in coating) and with S. aureus (0.12 weight % Ag in coating) was “−” throughout. Also, the “surviving bacteria (growth)” value with E. coli [3] (0.0012 weight % Ag in coating) is on record as “+”; in the test on E. coli [3] (0.003 weight % Ag in coating), “+”; in the test on E. coli [3] (0.006 weight % Ag in coating) it was “+”; in the test on E. coli [3] (0.012 weight % Ag in coating), “+”; in the test on E. coli [3] (0.06 weight % Ag in coating) it was “−”; with E. coli [3] (0.12 weight % Ag in coating), “−”. The “surviving bacteria (growth)” value is “+” in the test with E. coli [4] (0.0012 weight % Ag in coating); “+” with E. coli [4] (0.003 weight % Ag in coating); “+” with E. coli [4] (0.006 weight % Ag in coating); “+” in the test on E. coli [4] (0.012 weight % Ag in coating); “−” in the test on E. coli [4] (0.03 weight % Ag in coating); “−” in the test with E. coli [4] (0.06 weight % Ag in coating). Moreover, in the test with E. coli [4] (0.12 weight % Ag in coating), the “surviving bacteria (growth)” value is “−”. Moreover, in the test with E. coli [2] (commercial acrylic paint), the “silver level partially effective” value is listed as 0.03 % Ag w/w. In addition, the “silver level at which partial growth is observed” value in the test on S. aureus (laboratory acrylic clearcoat) was 0.012 % Ag w/w and 0.006 % Ag w/w. Moreover, the “silver level with partial inhibition (only partial growth)” value in the test with E. coli [3] (laboratory acrylic paint) was 0.03%. In addition, in the test with E. coli [4] (commercial 2K epoxy paint), the “silver level giving complete inhibition of growth” value is 0.03 % w/w.
